Values joined by “and” are separate entries in the source; they are usually repeats but may differ in a detail not shown here. Equal entries are not always repeated.
Tests used:
[1] = tested on: Bloodstream form trypomastigotes of T. b. brucei strain 427 (WT); assay: Resazurin-based susceptibility assay, wild-type T. b. brucei; type: cell-based; conditions: for EC50: BSF trypomastigotes strain 427, n = 3; for trypanocidal activity against T. brucei (in words): compounds with short linkers (C-3)
Experimental: . […] This finding was in agreement with previous reports on TAO inhibitors showing that a decrease in efficacy against T. b. brucei growth inhibition was observed as chain length decreased.[8],[9],[23]
(§1) BSF trypanosomes of monomorphic strains Lister 427 (WT), multi-drug-resistant clone B48, and the AQP1-3 KO, which lacks all aquaglyceroporins,[26] were grown in complete HMI-9 with 10% fetal bovine serum, exactly as described, and tested using a standard resazurin-based assay with 23 doubling dilutions for each compound starting at 100 μM.[27] Human embryonic kidney (HEK) cells were cultured and assayed with a resazurin-based assay exactly as described previously.[9] EC50 values were calculated by nonlinear regression with an equation for a sigmoid curve with variable slope (Prism 8.0, GraphPad).

in vitro = conditions: human
[2] = tested on: human embryonic kidney (HEK) cells; conditions: HEK CC50 / T. b. brucei WT EC50
[3] = tested on: T. brucei cell line from which all aquaporins were knocked out (AQP1-3 KO); assay: microbe, parasite or virus in culture; type: cell-based, T. b. brucei; conditions: for RF (resistance factor relative to WT), AQP1-3 KO: EC50 AQP1-3 KO / EC50 WT; for EC50: Trypanosoma brucei, read-out: T. b. brucei EC50 AQP1-3 KO
Experimental: as §1

[4] = biological target: Purified recombinant trypanosome alternative oxidase (ΔMTS-TAO) (Trypanosoma brucei brucei, UniProt Q26710); assay: Inhibition of ubiquinol oxidase activity of purified ΔMTS-TAO; conditions: for IC50: rTAO IC50, purified ΔMTS-TAO, n = 3; for inhibition at 40 µM: read-out: rTAO % inhibition at 40 μM; for inhibition at 10 µM: read-out: rTAO % inhibition (compound tested at 10 μM)
Chain of Purified recombinant trypanosome alternative oxidase (ΔMTS-TAO) (Q26710 26-329, stated change not applied): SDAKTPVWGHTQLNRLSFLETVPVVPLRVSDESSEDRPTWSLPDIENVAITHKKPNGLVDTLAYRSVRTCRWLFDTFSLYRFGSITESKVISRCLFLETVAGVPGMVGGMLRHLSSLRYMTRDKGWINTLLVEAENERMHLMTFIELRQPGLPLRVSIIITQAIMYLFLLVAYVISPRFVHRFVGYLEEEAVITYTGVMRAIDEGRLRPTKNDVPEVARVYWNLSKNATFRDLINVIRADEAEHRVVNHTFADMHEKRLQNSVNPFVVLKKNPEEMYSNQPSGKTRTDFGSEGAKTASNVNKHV

[5] = tested on: T. b. brucei strain resistant to pentamidine (B48); assay: microbe, parasite or virus in culture; type: cell-based; conditions: for EC50: Trypanosoma brucei, read-out: T. b. brucei EC50 B48

Compound | EC50 ([1]; Trypanosoma brucei) | CC50 (in vitro) | SI (selectivity index) = CC50/EC50 (WT) [2] | RF (resistance factor relative to WT), AQP1-3 KO [3] | EC50 [3] | IC50 [4] | inhibition at 40 µM [4] | EC50 [5] | trypanocidal activity against T. brucei (in words) [1] | inhibition at 10 µM [4] | melting point | EC50 [1] | fold lower EC50 versus 7d ([1]; T. brucei WT EC50 of 20 versus 7d) | TAO inhibition (in words) [4] | RF (resistance factor relative to WT), B48 ([5]; EC50 B48 / EC50 WT)
Cc1cc(O)cc(O)c1C(=O)NCCCCCCCCCCCCOc1ccc(N)cc1 [12c] | 20.3 ± 1.3 µM | > 100 µM | >4.9 | 1.5 | 29.6 ± 2.2 µM | – | – | – | – | – | – | – | – | – | –
Cc1cc(O)cc(O)c1C(=O)NCCCCCCCCCCCCCCOc1ccc(C(=N)N)cc1 [1d] | 18.6 ± 1.1 µM | > 200 µM | – | – | – | > 40 µM | 31.4% | 28.9 ± 5.2 µM | – | – | – | – | – | – | –
CC(=O)O.Cc1cc(O)cc(O)c1C(=O)NCCCOc1ccc(C(=N)N)cc1 [1a] | > 100 µM | > 200 µM | – | – | – | – | – | > 100 µM | inactive | – | – | – | – | – | –
Cc1cc(O)cc(OC(=O)CCCCCCCCCCCCCCCOc2ccc(C#N)cc2)c1 [compound 21] | > 100 µM | > 100 µM | – | – | > 100 µM | > 10 µM | – | – | – | 30% | – | – | – | – | –
Cc1cc(O)cc(O)c1C(=O)NCCCCCCCCCCCCOc1ccc(C#N)cc1 [7c] | 15.6 ± 0.7 µM | 57.1 ± 0.1 µM | 3.7 | – | – | > 40 µM | 27.4% | 15.9 ± 0.7 µM | – | – | 81.9 °C | – | – | – | –
CC(=O)O.Cc1cc(O)cc(O)c1C(=O)NCCCCCCCCCCCCOc1ccc(N=C2NCCN2)cc1 [3c] | < 4 µM | > 100 µM | >36.5 | – | 3.92 ± 0.03 µM | 22.5 ± 0.3 µM | – | – | – | 46.3% | 44.5 to 51.1 °C | 2.7 ± 0.4 µM | – | – | –
Cc1cc(O)cc(O)c1C(=O)NCCCCCCOc1ccc(C(=N)NO)cc1 [8b] | 19.5 ± 1 µM | 76.8 ± 7.2 µM | 3.9 | – | 21 ± 1 µM | > 40 µM | -14.9% | 36 ± 1.8 µM | – | – | – | – | – | – | –
CC(=O)O.Cc1cc(O)cc(O)c1C(=O)NCCCCCCCCCCCCOc1ccc(C(=N)N)cc1 [1c] | < 4 µM | 43.5 ± 5.4 µM | 13.2 | – | – | > 40 µM | 39.3% | 3.6 ± 0.1 µM | – | – | – | 3.3 ± 0.2 µM | – | – | –
Cc1cc(O)cc(O)c1C(=O)NCCCCCCCCCCCCCCOc1ccc(C#N)cc1 [7d] | 14.8 ± 0.5 µM | 56.8 ± 0.2 µM | 3.8 | – | – | 16.4 ± 0.7 µM | 89.7% | 15.7 ± 0.5 µM | – | – | – | – | – | – | –
C/C(=C\Cc1c(O)c(Cl)c(C)c(C=O)c1O)CC/C=C(\C)[C@@H]1CC(=O)C(C)(C)O1 [ascofuranone, reference compound] | – | – | – | – | – | – | 100% | – | – | – | – | – | – | – | –
Cc1cc(O)cc(O)c1C(=O)NCCCOc1ccc(C(=N)NO)cc1 [8a] | > 100 µM | > 200 µM | – | – | – | > 40 µM | 14.1% | > 100 µM | inactive | – | – | – | – | – | –
CC(=O)O.Cc1cc(O)cc(O)c1C(=O)NCCCCCCOc1ccc(C(=N)N)cc1 [1b] | 15.5 ± 0.6 µM | > 200 µM | >12.9 | – | 17.4 ± 0.9 µM | > 40 µM | 12.5% | 28 ± 0.5 µM | – | – | – | – | – | – | –
Cc1cc(O)cc(O)c1C(=O)NCCCOc1ccc(C#N)cc1 [7a] | 37.2 ± 3.4 µM | > 200 µM | >5.3 | – | – | > 40 µM | 28.8% | 50.8 ± 2.7 µM | poorly active | – | – | – | – | – | –
Cc1cc(O)cc(O)c1C(=O)NCCCCCCCCCCCCOc1ccc([N+](=O)[O-])cc1 [11c] | 9.5 ± 0.5 µM | > 100 µM | >10.5 | – | 10.2 ± 0.7 µM | 30 ± 1.5 µM | – | – | – | 53.8% | 102.3 to 106.3 °C | – | – | – | –
Cc1cc(O)cc(O)c1C(=O)NCCCCCCOc1ccc(C#N)cc1 [7b] | 30.4 ± 0.4 µM | > 200 µM | – | – | 30.5 ± 0.7 µM | 1.52 µM and 1.5 µM | 96.2% | 27.7 ± 2 µM | – | – | – | – | – | – | –
N=C(N)c1ccc(OCCCCCOc2ccc(C(=N)N)cc2)cc1 [pentamidine, reference compound] | 0.004 ± 0.001 µM | – | – | – | 0.046 ± 0.003 µM | – | – | 0.208 ± 0.021 µM | – | – | – | – | – | – | –
Cc1cc(O)cc(O)c1C(=O)NCCCCCCCCCCCCOc1ccc(N=C2N(C(=O)OC(C)(C)C)CCN2C(=O)OC(C)(C)C)cc1 [14c] | 10.4 ± 0.7 µM | > 100 µM | >9.6 | 1.5 | 15.7 ± 0.3 µM | – | – | – | – | – | – | – | – | – | –
Cc1cc(O)cc(O)c1C(=O)NCCCCCCCCCCCCCCOc1ccc(C(=N)NO)cc1 [8d] | 29 ± 2.2 µM | > 200 µM | – | – | – | > 40 µM | -3.4% | 27.1 ± 2.4 µM | – | – | – | – | – | – | –
Cc1cc(O)cc(O)c1C(=O)NCCCCCCCCCCCCOc1ccc(C(=N)NO)cc1 [8c] | 8.4 ± 1.1 µM | 109 ± 1.6 µM | 13 | – | – | > 40 µM | 44.8% | 9.1 ± 0.5 µM | – | – | – | – | – | – | –
Cc1cc(O)c(C(=O)CCCCCCCCCCCCCCCOc2ccc(C#N)cc2)c(O)c1 [compound 20] | 5.8 ± 0.7 µM | > 100 µM | >17.1 | – | 8.2 ± 0.9 µM | > 10 µM | – | – | – | 13.4% | – | – | 2.5 fold | lack of TAO inhibition | –
N=C(N)c1ccc(/N=N/Nc2ccc(C(=N)N)cc2)cc1 [diminazene, reference compound] | 0.095 ± 0.011 µM | – | – | – | – | – | – | 0.107 ± 0.019 µM | – | – | – | – | – | – | 1.1
CC(=O)O.Cc1cc(O)cc(O)c1C(=O)NCCCCCCCCCCCCOc1ccc(C2=NCCN2)cc1 [2c] | – | 67.2 ± 0.8 µM | 39.1 | – | 2.9 ± 0.4 µM | > 10 µM | – | – | – | 10% | – | – | – | – | –

Source: publication PMC8842630, “Imidazoline- and Benzamidine-Based Trypanosome Alternative Oxidase Inhibitors: Synthesis and Structure–Activity Relationship Studies” (ACS Medicinal Chemistry Letters, 2022)
